For experiment [1], the target named is T1, MAT2A (Homo sapiens, UniProt P31153).
T1 construct: purchased BPS Bioscience (USA) 71401
Put plainly: MAT2A inhibitory activity, colorimetric phosphate detection (PiColorLock) enzyme assay. The class given is biochemical. The settings on record: Test Condition 1 or 2 (not stated which per compound); absorbance at 630 nm. How it is done:
In vitro assay: Methionine and adenosine triphosphate (ATP) are converted into S-adenosylmethionine (SAM) and inorganic phosphate (pi) via the catalytic action of methionine adenosyltransferase 2A (MAT2A). The produced pi is detected by the PiColorLock™ Phosphate Detection Reagent, which is a colorimetric assay, and the activity of MAT2A can be evaluated according to the amount of pi generated during the enzyme reaction. Each compound was evaluated under Test Condition 1 or 2 as described below.
• Concentration of MAT2A inhibitor: maximum concentration of 50 µM, 5-fold dilution (7 groups in total) • MAT2A concentration: 12 ng/µL • ATP and Met concentration: 100 µM, 80 µM
• Concentration of MAT2A inhibitor: maximum concentration of 1 µM, 3-fold dilution (7 groups in total) • MAT2A concentration: 4 ng/µL • ATP and Met concentration: 300 µM, 150 µM • Reagents: Methionine (catalog number M5308) and ATP (catalog number A2383) were purchased from Sigma-Aldrich (USA). MAT2A (catalog number 71401) was purchased from BPS Bioscience (USA), and PiColorLock™ Phosphate Detection Reagent (catalog number 303-0030) was purchased from Novus (USA).
Assay buffer composition: 50 mM Tris-HCl pH 8.0, 50 mM KCI, 15 mM MgCl2, 0.3 mM EDTA, 0.005 % (w/v) BSA
Experimental procedure: Each compound was diluted 5-fold or 3-fold based on the maximum concentration (5 mM or 1 mM or 0.1 mM) using DMSO. The diluted compounds were diluted 20-fold using assay buffer, and then mixed at a volume ratio of 1:2 with MAT2A (30 ng/µL or 10 ng/µL) diluted with assay buffer and treated for 30 minutes at room temperature. The negative control group is a group untreated with both the MAT2A enzyme and the compound according to an embodiment of the present application, and the positive control group is a group treated only with the MAT2A enzyme and untreated with the compound according to an embodiment of the present application.
In each well of a 384-well plate, 30 µL of the mixed solution and 20 µL of a 1:1 mixed solution of ATP (0.5 mM or 1.5 mM) and Met (0.4 mM or 0.75 mM) were mixed and then treated for 1 hour at room temperature. After the enzyme reaction, 13 µL of a 100:1 mixed solution of PiColorLockTM and Accelerator was treated in each well and reacted for 5 minutes at room temperature. After treating 5 µL of Stabilizer in each well and reacting for 25 minutes at room temperature, the absorbance at 630 nm was measured using SpectraMax M4 (Molecular Devices, USA) to calculate the IC50 value of the compound.
Analysis method: The enzyme activity (%) of each experimental group was calculated as {(average O.D. of compound-treated group - average O.D. of negative control group)/(average O.D. of positive control group - average O.D. of negative control group)} * 100. After preparing a dose-response curve (4-parameter) using the enzyme activity according to the treatment concentration of each compound in GraphPad Prism 9, the 50 % of enzyme inhibitory activity value (IC50) was calculated through non-linear regression analysis. The IC50 results measured for the MAT2A activity inhibitory ability of the compounds according to an embodiment of the present application are shown in Table 2 (+++: more than 1 to 100 nM, ++: more than 100 to 1,000 nM, +: more than 1,000 to 10,000 nM, -: more than 10,000 nM).

Experiment [2] concerns HCT116 (MTAP del) cell line. Put plainly: Cell proliferation inhibition in MTAP-deficient cancer cells, WST-1 assay. The class given is cell-based. As to conditions: Homo sapiens, HCT-116, 120 hours of drug treatment, maximum concentration 10 µM, read-out: HCT116 MTAP^-/- (IC50, cell proliferation inhibited by 50%). How it is done:
(§1) The HCT116 (MTAP del) cell line, which is a colorectal cancer cell line with deletion of MTAP gene, was treated with a compound according to an embodiment of the present application as a MAT2A inhibitor, and after culturing for 120 hours, the change in the number of cells was measured with a WST-1 assay reagent. The WST-1 assay is an assay that measures the number of cells by measuring the generation of a chromogenic substance called formazan from tetrazolium salts by intracellular mitochondrial dehydrogenase. In addition, as a control group, a wild-type colorectal cancer HCT116 (MTAP WT) cell line containing the MTAP gene was used to perform the experiment in the same manner as the experimental group.
(§2) Cell lines and reagents: HCT116 (MTAP WT (catalog number HD PAR-034), MTAP del (catalog number HD R02-033)) cell lines were purchased from Horizon Discovery (USA), and RPMI1640 medium (catalog number 22400-093), FBS (Fetal Bovine serum, catalog number 16000044), and Penicillin/Streptomycin (catalog number 15140-122) were purchased from GIBCO (USA). WST-1 (catalog number EZ-BULK150) was purchased from Dogen (Korea).
(§3) Experimental procedure: HCT116 (MTAP WT, MTAP del) cell lines were dispensed into a 96-well plate at a concentration of 1,000 cells/well in RPMI1640 culture medium containing 10% FBS and 1% Penicillin/Streptomycin, and allowed to attach for 24 hours. When the cells were attached to the plate, the drug was diluted 4-fold from a maximum concentration of 10 µM and treated on the cells. After 120 hours of drug treatment, 20 µL of WST-1 solution was treated for 2 hours, and absorbance at 450 nm was measured using SpectraMax M4 (Molecular Devices). Data analysis was calculated by taking the DMSO control group value as 100%. For the IC50 value, the concentration at which cell proliferation is inhibited by 50% was calculated through interpolation using a 4-parameter fit of the dose-response curve using the GraphPad Prism 8.4.3 program. The cancer cell proliferation inhibitory ability and selectivity in MTAP-deficient cancer cells of the compounds according to an embodiment of the present application are described in Table 3 (+++: 1 to 100 nM, ++: more than 100 to 1,000 nM, +: more than 1 to 10 µM, -: more than 10 µM).
A general note: Formazan colour is commonly taken as a measure of viable cells.

The test system of experiment [3] is HCT116 (MTAP WT) cell line. The experiment can be described thus: Cell proliferation inhibition in wild-type control cells, WST-1 assay. The class given is cell-based. As to conditions: Homo sapiens, HCT-116, 120 hours of drug treatment, maximum concentration 10 µM, read-out: HCT116 WT (IC50, cell proliferation inhibited by 50%). As to the method: as §1, §2, §3

The structures appear in SMILES notation.

T1 sequence (P31153 whole entry): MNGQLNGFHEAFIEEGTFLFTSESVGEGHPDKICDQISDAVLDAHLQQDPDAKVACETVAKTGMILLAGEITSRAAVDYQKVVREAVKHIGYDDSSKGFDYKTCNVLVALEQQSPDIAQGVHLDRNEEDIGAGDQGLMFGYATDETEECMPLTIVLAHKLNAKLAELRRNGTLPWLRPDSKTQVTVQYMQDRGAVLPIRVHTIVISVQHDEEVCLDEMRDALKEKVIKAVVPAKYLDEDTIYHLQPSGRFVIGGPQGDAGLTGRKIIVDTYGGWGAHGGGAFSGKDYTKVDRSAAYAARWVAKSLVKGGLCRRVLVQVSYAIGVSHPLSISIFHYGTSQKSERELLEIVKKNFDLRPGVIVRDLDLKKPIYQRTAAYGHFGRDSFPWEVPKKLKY

As for `O=c1c2nccn2c2ccc(Cl)cc2n1-c1ccccc1C(F)(F)F` [Example 7, 7-chloro-5-(2-(trifluoromethyl)phenyl)imidazo[1,2-a]quinoxalin-4(5H)-one], the IC50 in experiment [1] was 100 to 1000 nM; in experiment [2], 1000 to 10000 nM; in experiment [3] it was greater than 10000 nM.

In the case of `Cc1cc(F)ccc1-n1c(=O)c2nccn2c2ccc(Cl)cc21` [Example 8, 7-chloro-5-(4-fluoro-2-methylphenyl)imidazo[1,2-a]quinoxalin-4(5H)-one], the IC50 in experiment [1] is 1000 to 10000 nM; in experiment [2], greater than 10000 nM; in experiment [3], greater than 10000 nM.

With `Cc1ccc(F)cc1-n1c(=O)c2nccn2c2ccc(Cl)cc21` [Example 9, 7-chloro-5-(5-fluoro-2-methylphenyl)imidazo[1,2-a]quinoxalin-4(5H)-one], the IC50 in experiment [1], in experiment [2] and in experiment [3] was greater than 10000 nM each time.

Consider `Cc1c(F)cccc1-n1c(=O)c2nccn2c2ccc(C(F)(F)F)cc21` [Example 10, 5-(3-fluoro-2-methylphenyl)-7-(trifluoromethyl)imidazo[1,2-a]quinoxalin-4(5H)-one], for which the IC50 in experiment [1] was 1 to 100 nM; in experiment [2], 1 to 100 nM; in experiment [3], 100 to 1000 nM.

On to `Cc1c(Cl)cccc1-n1c(=O)c2nccn2c2ccc(Cl)cc21` [Example 11, 7-chloro-5-(3-chloro-2-methylphenyl)imidazo[1,2-a]quinoxalin-4(5H)-one], for which the IC50 was in the range of 100 to 1000 nM in experiment [1], 1 to 100 nM in experiment [2] and 100 to 1000 nM in experiment [3].

As to `Cc1c(F)cccc1-n1c(=O)c2nccn2c2ccc(C3CC3)cc21` [Example 13, 7-cyclopropyl-5-(3-fluoro-2-methylphenyl)imidazo[1,2-a]quinoxalin-4(5H)-one], the IC50 in experiment [1] was 100 to 1000 nM; in experiment [2], 100 to 1000 nM; in experiment [3], greater than 10000 nM.

On to `COc1ccc2c(c1)n(-c1cccc(F)c1C)c(=O)c1nccn12` [Example 14, 5-(3-fluoro-2-methylphenyl)-7-methoxyimidazo[1,2-a]quinoxalin-4(5H)-one], for which the IC50 is 100 to 1000 nM in experiment [1], 100 to 1000 nM in experiment [2] and greater than 10000 nM in experiment [3].

With `Cc1c(F)cccc1-n1c(=O)c2nccn2c2ccc(OC(F)(F)F)cc21` [Example 15, 5-(3-fluoro-2-methylphenyl)-7-(trifluoromethoxy)imidazo[1,2-a]quinoxalin-4(5H)-one], the IC50 is 1000 to 10000 nM in experiment [1], 100 to 1000 nM in experiment [2] and greater than 10000 nM in experiment [3].

As to `Cc1ccccc1-n1c(=O)c2nccn2c2ccc(C3CC3)cc21` [Example 16, 7-cyclopropyl-5-(o-tolyl)imidazo[1,2-a]quinoxalin-4(5H)-one], the IC50 was 100 to 1000 nM in experiment [1], 100 to 1000 nM in experiment [2] and greater than 10000 nM in experiment [3].

On to `COc1ccc2c(c1)n(-c1ccccc1C)c(=O)c1nccn12` [Example 17, 7-methoxy-5-(o-tolyl)imidazo[1,2-a]quinoxalin-4(5H)-one], for which the IC50 in experiment [1] was 100 to 1000 nM; in experiment [2], 100 to 1000 nM; in experiment [3] it was greater than 10000 nM.

As for `Cc1ccccc1-n1c(=O)c2nccn2c2ccc(C#N)cc21` [Example 18, 4-oxo-5-(o-tolyl)-4,5-dihydroimidazo[1,2-a]quinoxalin-7-carbonitrile], the IC50 in experiment [1] is 1000 to 10000 nM; in experiment [2] it was 1000 to 10000 nM; in experiment [3] it was greater than 10000 nM.

As to `Cc1ccccc1-n1c(=O)c2nccn2c2ccc(OC(F)(F)F)cc21` [Example 19, 5-(o-tolyl)-7-(trifluoromethoxy)imidazo[1,2-a]quinoxalin-4(5H)-one], the IC50 in experiment [1] is 1000 to 10000 nM; in experiment [2] it was 1000 to 10000 nM; in experiment [3] it was greater than 10000 nM.

With `Cc1ccccc1-n1c(=O)c2nccn2c2ccc(C(F)F)cc21` [Example 22, 7-(difluoromethyl)-5-(o-tolyl)imidazo[1,2-a]quinoxalin-4(5H)-one], the IC50 in experiment [1] was 1 to 100 nM; in experiment [2] it was 1 to 100 nM; in experiment [3], greater than 10000 nM.

Take `O=c1c2nccn2c2ccc(Cl)cc2n1-c1ccccc1Cl` [Example 23, 7-chloro-5-(2-chlorophenyl)imidazo[1,2-a]quinoxalin-4(5H)-one]: the IC50 in experiment [1] is 1 to 100 nM; in experiment [2], 100 to 1000 nM; in experiment [3] it was greater than 10000 nM.

`CC(=O)c1ccc2c(c1)n(-c1ccccc1C)c(=O)c1nccn12` [Example 24, 7-acetyl-5-(o-tolyl)imidazo[1,2-a]quinoxalin-4(5H)-one]: the IC50 was 100 to 1000 nM in experiment [1], greater than 10000 nM in experiment [2] and greater than 10000 nM in experiment [3].

`Cc1ccccc1-n1c(=O)c2nccn2c2ccc(I)cc21` [Example 25, 7-Iodo-5-(o-tolyl)imidazo[1,2-a]quinoxalin-4(5H)-one]: the figures for the IC50 in experiment [1], in experiment [2] and in experiment [3] were 1 to 100 nM, 1 to 100 nM and 100 to 1000 nM, respectively.

Take `Cc1ccccc1-n1c(=O)c2nccn2c2ccc(C(F)(F)F)cc21` [Example 26, 5-(o-tolyl)-7-(trifluoromethyl)imidazo[1,2-a]quinoxalin-4(5H)-one]: the IC50 in experiment [1] was 1 to 100 nM; in experiment [2], 1 to 100 nM; in experiment [3] it was greater than 10000 nM.

As for `Cc1c(F)cccc1-n1c(=O)c2nccn2c2ccc(C#N)cc21` [Example 27, 5-(3-fluoro-2-methylphenyl)-4-oxo-4,5-dihydroimidazo[1,2-a]quinoxalin-7-carbonitrile], the IC50 in experiment [1] is 100 to 1000 nM; in experiment [2] it was 100 to 1000 nM; in experiment [3], greater than 10000 nM.

For `Cc1ccccc1-n1c(=O)c2nccn2c2ccc(OCC(F)(F)F)cc21` [Example 28, 5-(o-tolyl)-7-(2,2,2-trifluoroethoxy)imidazo[1,2-a]quinoxalin-4(5H)-one], the IC50 in experiment [1], in experiment [2] and in experiment [3] was greater than 10000 nM each time.

Values taken from patent EP4759814A1, “TRICYCLIC COMPOUND AND USE THEREOF AS MAT2A INHIBITOR” (SK Biopharmaceuticals Co., Ltd., priority 2023, dated 2025).
